Experiment [1] addresses T1, ligand binding domain (LBD) of human FXR (aa 193-473) (Homo sapiens, UniProt Q96RI1).
T1 sequence (Q96RI1 1-486): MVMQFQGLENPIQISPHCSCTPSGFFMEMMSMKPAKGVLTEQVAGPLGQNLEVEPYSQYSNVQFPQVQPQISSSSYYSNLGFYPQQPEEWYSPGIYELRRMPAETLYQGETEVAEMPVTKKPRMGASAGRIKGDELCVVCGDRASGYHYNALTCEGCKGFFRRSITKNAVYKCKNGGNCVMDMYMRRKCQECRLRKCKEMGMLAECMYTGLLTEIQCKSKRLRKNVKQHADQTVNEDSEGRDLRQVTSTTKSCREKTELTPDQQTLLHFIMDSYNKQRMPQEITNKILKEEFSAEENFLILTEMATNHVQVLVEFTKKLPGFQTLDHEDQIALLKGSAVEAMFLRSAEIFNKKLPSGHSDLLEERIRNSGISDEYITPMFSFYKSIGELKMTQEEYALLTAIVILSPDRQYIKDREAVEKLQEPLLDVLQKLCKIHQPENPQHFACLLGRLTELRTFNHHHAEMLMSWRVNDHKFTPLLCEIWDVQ
In words: Luciferase transcriptional reporter gene assay (transactivation). The conditions noted are these: BHK21 cells transfected with pFA-FXR-LBD plus reporter plasmid; 24 hours incubation; luciferase luminescence. Type of experiment: cell-based. An excerpt: (§1) Bacterial and mammalian expression vectors were constructed to produce glutathione-s-transferase (GST) and Gal4 DNA binding domain (GAL) proteins fused to the ligand binding domain (LBD) of human FXR (aa 193-473). To accomplish this, the portions of the sequences encoding the FXR LBD were amplified by polymerase chain reaction (PCR) from a full-length clone by PCR and then subcloned into the plasmid vectors. The final clone was verified by DNA sequence analysis.
Luciferase Transcriptional Reporter Gene Assays
Baby hamster kidney cells (BHK21 ATCC CCL 10) were grown in DMEM medium containing 10% FBS at 37° C. in a 95% […]/5% CO2 atmosphere. Cells were seeded in 6-well plates at a density of 10^5 cells/well and then transfected with the pFA-FXR-LBD or expression plasmid plus a reporter plasmid. […] Six hours following transfection, the cells were harvested by trypsinization and seeded in 96-well plates at a density of […]. After 24 hours to allow attachment of cells, the medium was removed and replaced with 100 μl of phenol red-free medium containing the test substances or control ligands (final DMSO concentration: 0.4%). Following incubation of the cells for 24 hours with substances, 50 μl of the supernatant was discarded and then 50 μl of Luciferase Constant-Light Reagent (Roche Molecular Biochemicals) was added to lyse the cells and initiate the luciferase reaction. Luminescence, as a measure of luciferase activity, was detected in a Packard TopCount. Transcriptional activation in the presence of a test substance was expressed as fold-change in luminescence compared to that of cells incubated in the absence of the substance. EC50 values were calculated using the XLfit program (ID Business Solutions Ltd. UK).
For orientation: Reporter assays use an easily measured gene product as a stand-in for the process of interest.

The target in experiment [2] is T2, FXR ligand binding domain (GST-FXR LBD fusion protein) (Homo sapiens, UniProt Q96RI1).
T2 construct: made in house; host or cells: E. coli BL21 (pLysS)
T2 sequence (Q96RI1 193-472 isoform Q96RI1-2 limits assumed): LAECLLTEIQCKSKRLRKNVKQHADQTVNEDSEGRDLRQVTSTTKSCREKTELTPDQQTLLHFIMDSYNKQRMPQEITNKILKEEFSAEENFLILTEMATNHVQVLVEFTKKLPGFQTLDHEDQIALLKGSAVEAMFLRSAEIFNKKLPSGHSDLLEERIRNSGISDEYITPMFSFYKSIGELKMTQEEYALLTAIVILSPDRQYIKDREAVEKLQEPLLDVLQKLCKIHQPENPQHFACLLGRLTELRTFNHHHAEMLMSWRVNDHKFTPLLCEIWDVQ
Put plainly: Radioligand binding assay (SPA, radioligand displacement). The conditions noted are these: 40 nM GST-FXR LBD on glutathione yttrium silicate SPA beads; radioligand e.g. 20 nM 2,N-dicyclohexyl-2-[2-(2,4 dimethoxy-phenyl)-benzoimidazol-1-yl]-acetamide. As for the experimental part: The following tests were carried out in order to determine the activity of the compounds of formula (I). Background information on the binding assay can be found in: Nichols J S et al. “Development of a scintillation proximity assay for peroxisome proliferator-activated receptor gamma ligand binding domain”, (1998) Anal. Biochem. 257: 112-119.
as §1
The induction, expression, and subsequent purification of GST-LBD fusion protein was performed in E. coli strain BL21 (pLysS) cells by standard methods (Current Protocols in Molecular Biology, Wiley Press, ed. Ausubel et al.).
Radioligand Binding Assay
Binding of test substances to the FXR ligand binding domain was assessed in a radioligand displacement assay. The assay was performed in a buffer consisting of 50 mM Hepes, pH 7.4, 10 mM NaCl, 5 mM MgCl2, 0.01% CHAPS. For each reaction well in a 96-well plate, 40 nM of GST-FXR LBD fusion protein was bound to 10 μg glutathione ytrium silicate SPA beads (PharmaciaAmersham) in a final volume of 50 μl by shaking. A radioligand (e.g. 20 nM of 2,N-dicyclohexyl-2-[2-(2,4 dimethoxy-phenyl)-benzoimidazol-1-yl]-acetamide) and test compounds were added, and scintillation proximity counting was performed. All binding assays were performed in 96-well plates and the amount of bound ligand was measured on a Packard TopCount using OptiPlates (Packard). Dose response curves were performed within a range of test compound concentrations from 6×10^−9 M to 2.5×10^−5 M and IC50s were calculated.
On the technique in general: Displacement assays read how much labelled ligand stays bound in the presence of the test substance.

The structures appear in SMILES notation.

Regarding `Cc1cccc(OCc2nc3cc(F)ccc3n2C(C(=O)NC2CCCCC2)C2CCCCC2)c1C` (stereo not drawn) [Example 49, 2,N-Dicyclohexyl-2-[2-(2,3-dimethyl-phenoxymethyl)-5-fluoro-benzoimidazol-1-yl]-acetamide], the EC50 (commonly the concentration at which the effect is half-maximal) in experiment [1] is 95 nM. In addition, the IC50 (as a rule, the concentration that inhibits the measured activity by half) in experiment [2] is 38 nM.
Turning to `Cc1cc(Cl)ccc1O[C@H](C)c1nc2ccc(F)cc2n1[C@H](C(=O)NC1CCCCC1)C1CCCCC1` [Example 31, (S)-2-{2-[(R)-1-(4-Chloro-2-methyl-phenoxy)-ethyl]-6-fluoro-benzoimidazol-1-yl}-2,N-dicyclohexyl-acetamide], the EC50 in experiment [1] turned out to be 254 nM. The IC50 in experiment [2] is 118 nM.
Turning to `O=C(NC1CCCCC1)C(C1CCCCC1)n1c(COc2ccccn2)nc2cc(F)ccc21` (stereo not drawn) [Example 56, 2,N-Dicyclohexyl-2-[5-fluoro-2-(pyridin-2-yloxymethyl)-benzoimidazol-1-yl]-acetamide], the EC50 in experiment [1] is 982 nM. In experiment [2], this compound showed an IC50 of 105 nM.
